In publication PMC11901561, “Free Radical Scavenging Activity and Inhibition of Enzyme-Catalyzed Oxidation by trans-aryl-Palladium Complexes” (Molecules, 2025):
Where two headings read alike, the source gives them in different places.

How the values were obtained:
[1] = ABTS radical scavenging test (spectrophotometric, 734 nm); settings: concentration scavenging 50% of ABTS•+; MeOH, 30 min; mean ± SD
Experimental: (§1) Radical scavenging capacity, as an indicator of the antioxidant capacity of compounds against 1,1-diphenyl-2-picrylhydrazyl (DPPH) free radicals and 2,2-azinobis (3-ethyl- enzothiazoline-6-sulfonic acid), ABTS•+ radical cations, was determined using a spectrophotometric assay. Antiradical capacity analysis was performed either on pure MeOH for ABTS or the mixture of MeOH/distilled water (90:10 v/v) for DPPH. For both ABTS and DPPH assays, the stock solutions of complexes were prepared in DMSO. Quercetin was used as an antioxidant standard in the DPPH and ABTS•+ scavenging tests. EC50 is defined as the concentration of compound (µM) required to scavenge 50% of ABTS•+ or DPPH radicals. EC50 values were estimated using nonlinear regression. A lower EC50 value indicates higher antiradical activity.
The ABTS assay was based on the method described by Re et al.. For the generation of ABTS•+ radicals, sodium persulfate (2.45 mM) aqueous solution was mixed with ABTS (7 mM) and incubated overnight in the dark to obtain a dark colored solution. The stock solution of ABTS•+ was then diluted by adding pure methanol (100%) to obtain an absorbance of 0.70 (±0.02) at 734 nm at 30 °C. An aliquot of 0.02 mL of tested compound was added to 1.98 mL of ABTS•+, and the decrease in absorbance was monitored at 734 nm after 30 min [80]. During this reaction, the blue green ABTS radical cation is converted back into its colorless neutral form in the presence of the potential antioxidant molecule. A control consisted of 0.02 mL of DMSO in 1.98 mL of ABTS•+ solution. The reducing capacity was determined according to the following formula:% inhibition = (A control − A Sample) × 100/A Control (1)
(§2) Results were expressed as mean values ± standard deviation (SD). All measurements were replicated three times. EC50 values were calculated with GraphPad Prism 6.0 (GraphPad Software, San Diego, CA, USA) under the application of the function “log (inhibitor) versus normalized response-variable slope” after converting the concentrations into their decimal logarithm. The results were analyzed using Student’s test and a two-way analysis of variance (ANOVA), and a multiple comparison of all data was performed using Tukey’s multiple comparisons test. p < 0.0001 was considered significant.

[2] = DPPH radical scavenging test (spectrophotometric, 517 nm)
Experimental: as §1, with “EC50 is defined as the concentration of compound (µM) required to scavenge 50% of ABTS•+ or DPPH radicals.” left out
The DPPH assay was performed according to the method developed by Brand-Williams et al. slightly modified. A solution of 1 mM DPPH in 90% (v/v) methanol was stirred for 40 min. The absorbance of the solution was adjusted to 0.650 ± 0.020 at 517 nm using fresh 90% (v/v) methanol. Then, 0.02 mL of quercetin taken as a standard or sample was mixed with 1.98 mL of DPPH solution and incubated for 30 min in the dark covered with aluminum foil. When reacting with an antioxidant, the DPPH• radical is converted into DPPH, and its color changes from purple to yellow. The antioxidant effect may be easily evaluated by observing the decrease in visible absorption. The absorbance decrease was monitored at 517 nm after 30 min of incubation with a Hewlett Packard 8453 spectrophotometer. The control consisted of 0.02 mL of DMSO in 1.98 mL of DPPH solution. A similar formula (Equation (1)) was applied to determine the DPPH radical scavenging activity.
as §2

[3] = Antiradical efficiency (kinetic study via DPPH assay)
Experimental: The reaction between potential antioxidants and the oxidized substrate requires a steady state which will depend on several parameters, such as the reaction time. The time needed to reach the steady state, at the concentration corresponding to EC50, is more and more frequently used and can be defined as TEC50. In brief, TEC50 was determined by plotting the recorded absorbance during the period for the EC50 concentration for the considered antioxidant compound. […] The antiradical efficiency of compounds and their classification are considered according to the work of Sanchez-Moreno [69].

[4] = target: T1, horseradish peroxidase (HRP) (Armoracia rusticana, UniProt P00433); experiment: biochemical; assay type: biochemical
T1 sequence (P00433 31-338 limits assumed): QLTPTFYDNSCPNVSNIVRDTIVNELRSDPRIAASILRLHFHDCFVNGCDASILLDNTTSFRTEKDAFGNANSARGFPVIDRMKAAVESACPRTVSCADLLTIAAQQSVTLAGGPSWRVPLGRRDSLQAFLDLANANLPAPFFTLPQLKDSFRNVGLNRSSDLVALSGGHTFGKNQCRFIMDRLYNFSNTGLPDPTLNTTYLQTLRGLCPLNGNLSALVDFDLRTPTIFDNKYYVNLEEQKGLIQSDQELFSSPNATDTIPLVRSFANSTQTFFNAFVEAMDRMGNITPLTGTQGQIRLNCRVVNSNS
Experimental: To investigate the effect of selected palladium (II)-based complexes on the peroxidase (HRP)-catalyzed oxidation of the chemiluminescent probe (L-012), in the presence of hydrogen peroxide (H2O2), the chemiluminescence technique was used. Briefly, plate-reader-based luminescence measurements were performed in white 96-well plates using a Fluoroskan Ascent FL microplate reader (Thermo Labsystems, Vantaa, Finland), with the temperature set at 37 °C. To 5 µL of a stock solution of HRP (1 mg/mL) in phosphate buffer (pH = 7.5) per well, we successively added 10 µL of L-012 (aqueous solution, 0.84 mmoL) and 2 µL of tested compound in 163 µL of buffer solution. The reaction was triggered by adding 20 µL hydrogen peroxide (0.19 µM) to reach the final volume of 200 µL. The light emission, produced from oxidation of L-012 by HRP/H2O2 system, in the presence or absence of the tested palladium complex, was recorded in kinetic mode for 30 min. Inhibition of the emitted light due to tested complexes was associated with higher activity. The following formula was applied to calculate the inhibiting activity of complexes towards the oxidation of L-012 catalyzed by the HRP/H2O2 system:% inhibition = (L control − L Sample) x 100/L Control
as §2

[5] = design: method as in earlier work; settings: values reported in the literature ref 60; read-out: EC50 ABTS, literature values; cited from earlier work
[6] = cited from earlier work

EC50 [1]: 5.56 ± 0.97 µM | EC50 (g Antioxidant/kg DPPH°) ([2]; EC50 expressed as weight of antioxidant per kg of DPPH radical): 87.98 ± 15 g Antioxidant/kg DPPH° | EC50 ([2]; concentration scavenging 50% of DPPH, 90% MeOH, 30 min, mean ± SD): 5.79 ± 1 µM | Effect on chemiluminescence at lowest concentrations ([4]; 1, 5, and 10 µM, HRP-H2O2/L-012): weak effect | EC50 ([4]; HRP-H2O2/L-012 system, pH 7.5, 37 °C, 30 min, read-out: EC50 chemiluminescence assay): 7.06 ± 2.56 µM
Compound: O=c1c(O)c(-c2ccc(O)c(O)c2)oc2cc(O)cc(O)c12 [Qrcn, Quercetin, reference compound]
AE (antiradical efficiency) ([3]; AE = 1/EC50.TEC50, DPPH): 0.1873 ×10^−3 | Classification of antiradical efficiency ([3]; according to Sanchez-Moreno, from AE value): Low | TEC50 ([3]; time needed to reach the steady state at the EC50 concentration, DPPH): 61 min | EC50 [5]: ~15 µM | EC50 (g antioxidant per Kg of DPPH), literature value [6]: 84 ± 6 g/kg
